Read-outs that look alike come from different tables or passages of the source.
Columns and labels:
Set-up in all cases: species or system Hepatitis C virus (HCV)
[1] = system: HCV replicon 2B; assay: Cell-based HCV replicon assay (Replicon Assay A), replicon 2B; conditions: read-out: Replicon EC50 (nM) 2B, replicon 2B, replicon RNA by real time PCR, cells harvested on day 3
Protocol: (§1) To measure cell-based anti-HCV activity of compounds of the present invention, two complimentary assays were employed using various replicons. In the first assay (“Replicon Assay A”), replicon cells were seeded at 2000 cells/well in 384-well 384-well flat bottom tissue culture treated clear bottom plate (Corning 3707) in the presence of the test compound. Various concentrations of test compound, typically in 10 serial dilutions, were added to the assay mixture, with the starting concentration ranging from 333.3 nM to […]. The final concentration of DMSO was 0.5%. Fetal bovine serum was 5%, in the assay media. Cells were harvested on day 3 by removing media and washing the cells with a suitable wash buffer. The cells are lysed with the addition of 1× Qiagen lysis buffer (Cat #1062731). The replicon RNA level was measured using real time PCR (TaqMan® EZ RT-PCR, Applied Biosystems 403028) with the following primers and probes: […]
(§2) Cyclophilin RNA was used as endogenous control and was amplified in the same reaction as NS5B (multiplex PCR). The real-time RT-PCR reactions were run on ABI PRISM 7900HT Sequence Detection System using the following program: 50° C. for 2 minutes, 60° C. for 30 minutes, 95° C. for 5 minutes, 40 cycles of 94° C. for 20 sec, 55° C. for 1 minutes.
(§3) The amount of HCV replicon RNA per cell is quantified using a linear regression curve for a known nanogram (ng) amount of HCV replicon total RNA. This is established by plotting the Cycle Threshold values (Ct) from the Neo probe and primer set versus the log (ng) for each HCV replicon total RNA standard. The amount of HCV RNA for each replicon sample is calculated by taking the sample's Ct value, minus the line intercept, divided by the slope of the line. Similarly, the amount of Cyclophilin mRNA per cell is also quantified using a linear regression curve for a known nanogram (ng) amount of HCV replicon total RNA. Again, this is established by plotting the Cycle Threshold values (Ct) from the Cyclophilin probe and primer set versus the log (ng) for each HCV replicon total RNA standard.
(§4) Data was obtained for various compounds of the present invention using the methods described in the Example above, and is presented in the table immediately below. Data for replicons 1A, 1AY93H and 2B were obtained using Replicon Assay A and data for replicons 1B were obtained using Replicon Assay B.

[2] = system: HCV replicon 1A Y93H; assay: Cell-based HCV replicon assay (Replicon Assay A), replicon 1AY93H; conditions: read-out: Replicon EC50 (nM) 1A Y93H, replicon 1A Y93H, replicon RNA by real time PCR, cells harvested on day 3
Protocol: as §1, §2, §3, §4

[3] = system: HCV replicon 1A; assay: Cell-based HCV replicon assay (Replicon Assay A), replicon 1A; conditions: replicon RNA by real time PCR, cells harvested on day 3
Protocol: as §1, §2, §3, §4

Structure (SMILES) | EC50 ([1]; Hepatitis C virus, 72 h) [nM] | EC50 ([2]; Hepatitis C virus, 72 h) [nM] | EC50 ([3]; Hepatitis C virus, 72 h) [nM] | EC50 [3] [nM] | EC50 [1] [nM] | EC50 [2] [nM]
CCc1cc(C2Oc3cc(-c4cnc([C@@H]5CCCN5C(=O)[C@@H](NC(=O)OC)C(C)C)[nH]4)cc(F)c3-c3cc4cc(-c5cnc([C@@H]6CCCN6C(=O)[C@@H](NC(=O)OC)C(C)C)[nH]5)ccc4n32)on1 (mixture of isomers) [Compound 5] | 4.17 | 0.708 | – | – | – | –
COC(=O)N[C@H](C(=O)N1CCC[C@H]1c1ncc(-c2cc(F)c3c(c2)OC(c2nc4ccccc4n2C)n2c-3cc3cc(-c4cnc([C@@H]5CCCN5C(=O)[C@@H](NC(=O)OC)C(C)C)[nH]4)ccc32)[nH]1)C(C)C (mixture of isomers) [Compound 11] | 8.23 | 21.6 | 0.0081 | – | – | –
COC(=O)N[C@H](C(=O)N1CCC[C@H]1c1ncc(-c2cc(F)c3c(c2)OC(c2cc4ccccn4n2)n2c-3cc3cc(-c4cnc([C@@H]5CCCN5C(=O)[C@@H](NC(=O)OC)C(C)C)[nH]4)ccc32)[nH]1)C(C)C (mixture of isomers) [Compound 12] | 33.3 | – | 0.0202 | – | – | –
COC(=O)N[C@H](C(=O)N1CCC[C@H]1c1ncc(-c2ccc3c(c2)OC(c2nnc(-c4ccccc4)o2)n2c-3cc3cc(-c4cnc([C@@H]5CCCN5C(=O)[C@@H](NC(=O)OC)C5CCOCC5)[nH]4)ccc32)[nH]1)C1CCOCC1 (mixture of isomers) [Compound 38] | – | 0.737 | 0.223 | – | – | –
CCc1cc([C@@H]2Oc3cc(-c4cnc([C@@H]5CCCN5C(=O)[C@@H](NC(=O)OC)C(C)C)[nH]4)cc(F)c3-c3cc4cc(-c5cnc([C@@H]6CCCN6C(=O)[C@@H](NC(=O)OC)C(C)C)[nH]5)ccc4n32)on1 (single isomer, unassigned) [Compound 7] | – | – | – | 0.0073 | 10.5 | 49.7
CCc1cc([C@@H]2Oc3cc(-c4cnc([C@@H]5CCCN5C(=O)[C@@H](NC(=O)OC)C(C)C)[nH]4)cc(F)c3-c3cc4cc(-c5cnc([C@@H]6CCCN6C(=O)[C@@H](NC(=O)OC)C(C)C)[nH]5)ccc4n32)on1 (single isomer, unassigned) [Compound 8] | – | – | 0.004 | – | 1.23 | 0.603
COC(=O)N[C@H](C(=O)N1CCC[C@H]1c1ncc(-c2cc(F)c3c(c2)O[C@@H](c2cc(C(C)C)no2)n2c-3cc3cc(-c4cnc([C@@H]5CCCN5C(=O)[C@@H](NC(=O)OC)C(C)C)[nH]4)ccc32)[nH]1)C(C)C (single isomer, unassigned) [Compound 9] | – | – | 0.0036 | – | 0.27 | 0.05
COC(=O)N[C@H](C(=O)N1CCC[C@H]1c1ncc(-c2cc(F)c3c(c2)O[C@@H](c2cc(C(C)C)no2)n2c-3cc3cc(-c4cnc([C@@H]5CCCN5C(=O)[C@@H](NC(=O)OC)C(C)C)[nH]4)ccc32)[nH]1)C(C)C (single isomer, unassigned) [Compound 10] | – | – | – | 0.0027 | 1.05 | 1.43
COC(=O)N[C@H](C(=O)N1CCC[C@@H]1c1ncc(-c2ccc3c(c2)cc2n3C(c3nnc(C)s3)Oc3cc(-c4cnc([C@H]5CCCN5C(=O)[C@H](NC(=O)OC)C(C)C)[nH]4)cc(F)c3-2)[nH]1)C(C)C (single isomer, unassigned) [Compound 15] | 3.06 | – | – | – | – | –
COC(=O)N[C@H](C(=O)N1CCC[C@@H]1c1ncc(-c2ccc3c(c2)cc2n3C(c3nnc(C)s3)Oc3cc(-c4cnc([C@H]5CCCN5C(=O)[C@H](NC(=O)OC)C(C)C)[nH]4)cc(F)c3-2)[nH]1)C(C)C (single isomer, unassigned) [Compound 16] | – | – | – | – | 1.75 | –
COC(=O)N[C@H](C(=O)N1CCC[C@@H]1c1ncc(-c2ccc3c(c2)cc2n3C(c3cnco3)Oc3cc(-c4cnc([C@H]5CCCN5C(=O)[C@H](NC(=O)OC)C(C)C)[nH]4)cc(F)c3-2)[nH]1)C(C)C (single isomer, unassigned) [Compound 17] | 3.96 | – | – | 0.0327 | – | 0.716
COC(=O)N[C@H](C(=O)N1CCC[C@@H]1c1ncc(-c2ccc3c(c2)cc2n3C(c3cnco3)Oc3cc(-c4cnc([C@H]5CCCN5C(=O)[C@H](NC(=O)OC)C(C)C)[nH]4)cc(F)c3-2)[nH]1)C(C)C (single isomer, unassigned) [Compound 18] | – | – | – | 0.0023 | 3.54 | 18.4
COC(=O)N[C@H](C(=O)N1CCC[C@H]1c1ncc(-c2cc(F)c3c(c2)OC(c2nc4ccccc4o2)n2c-3cc3cc(-c4cnc([C@@H]5CCCN5C(=O)[C@@H](NC(=O)OC)C(C)C)[nH]4)ccc32)[nH]1)C(C)C (single isomer, unassigned) [Compound 19] | – | – | 0.0016 | – | 2.67 | 4.36
COC(=O)N[C@H](C(=O)N1CCC[C@H]1c1ncc(-c2cc(F)c3c(c2)OC(c2cnns2)n2c-3cc3cc(-c4cnc([C@@H]5CCCN5C(=O)[C@@H](NC(=O)OC)C(C)C)[nH]4)ccc32)[nH]1)C(C)C (single isomer, unassigned) [Compound 21] | – | – | – | – | 0.98 | 1.39
COC(=O)N[C@H](C(=O)N1CCC[C@H]1c1ncc(-c2cc(F)c3c(c2)OC(c2nc(C)co2)n2c-3cc3cc(-c4cnc([C@@H]5CCCN5C(=O)[C@@H](NC(=O)OC)C(C)C)[nH]4)ccc32)[nH]1)C(C)C (single isomer, unassigned) [Compound 23] | – | – | 0.0031 | – | 6.16 | 12.7
COC(=O)N[C@H](C(=O)N1CCC[C@H]1c1ncc(-c2cc(F)c3c(c2)OC(c2nc(C)co2)n2c-3cc3cc(-c4cnc([C@@H]5CCCN5C(=O)[C@@H](NC(=O)OC)C(C)C)[nH]4)ccc32)[nH]1)C(C)C (single isomer, unassigned) [Compound 24] | – | – | – | 0.0021 | 2.62 | 0.266
COC(=O)N[C@H](C(=O)N1CCC[C@H]1c1ncc(-c2cc(F)c3c(c2)OC(c2cc(C(C)C)no2)n2c-3cc3cc(-c4cnc([C@@H]5CCCN5C(=O)[C@@H](NC(=O)OC)C(C)C)[nH]4)ccc32)[nH]1)C(C)C (single isomer, unassigned) [Compound 26] | – | – | – | – | 0.8 | 0.816
CCc1cnc(C2Oc3cc(-c4cnc([C@@H]5CCCN5C(=O)[C@@H](NC(=O)OC)C(C)C)[nH]4)cc(F)c3-c3cc4cc(-c5cnc([C@@H]6CCCN6C(=O)[C@@H](NC(=O)OC)C(C)C)[nH]5)ccc4n32)o1 (single isomer, unassigned) [Compound 27] | – | – | 0.0027 | – | 5.5 | –
CCc1cnc(C2Oc3cc(-c4cnc([C@@H]5CCCN5C(=O)[C@@H](NC(=O)OC)C(C)C)[nH]4)cc(F)c3-c3cc4cc(-c5cnc([C@@H]6CCCN6C(=O)[C@@H](NC(=O)OC)C(C)C)[nH]5)ccc4n32)o1 (single isomer, unassigned) [Compound 28] | – | 0.31 | – | 0.0021 | 2.09 | –
COC(=O)N[C@H](C(=O)N1CCC[C@H]1c1ncc(-c2cc(F)c3c(c2)OC(c2cc(C4CC4)no2)n2c-3cc3cc(-c4cnc([C@@H]5CCCN5C(=O)[C@@H](NC(=O)OC)C(C)C)[nH]4)ccc32)[nH]1)C(C)C (single isomer, unassigned) [Compound 29] | – | – | – | – | 0.46 | 3.25
CCc1nnc(C2Oc3cc(-c4cnc([C@@H]5CCCN5C(=O)[C@@H](NC(=O)OC)C(C)C)[nH]4)cc(F)c3-c3cc4cc(-c5cnc([C@@H]6CCCN6C(=O)C(NC(=O)OC)C(C)C)[nH]5)ccc4n32)s1 (single isomer, unassigned) [Compound 34] | – | 0.793 | – | 0.0084 | – | –
COC(=O)N[C@H](C(=O)N1CCC[C@H]1c1ncc(-c2cc(F)c3c(c2)OC(c2cnc4n2CCC4)n2c-3cc3cc(-c4cnc([C@@H]5CCCN5C(=O)[C@@H](NC(=O)OC)C(C)C)[nH]4)ccc32)[nH]1)C(C)C (some centres unmarked) [Compound 13] | – | – | 0.147 | – | – | –
COC(=O)N[C@H](C(=O)N1CCC[C@H]1c1ncc(-c2ccc3c(c2)OC(c2ccc(C)o2)n2c-3cc3cc(-c4cnc([C@@H]5C[C@@H](F)CN5C(=O)[C@@H](NC(=O)OC)C5CCOCC5)[nH]4)ccc32)[nH]1)C(C)C (some centres unmarked) [Compound 44] | – | 0.434 | 0.0679 | – | – | –
COC(=O)N[C@H](C(=O)N1CCC[C@H]1c1ncc(-c2ccc3c(c2)OC(c2ccc(C)o2)n2c-3cc3cc(-c4cnc([C@@H]5C[C@H]6C[C@H]6N5C(=O)[C@@H](NC(=O)OC)C(C)C)[nH]4)ccc32)[nH]1)C(C)C (some centres unmarked) [Compound 45] | – | 4.22 | 0.0484 | – | – | –
